Reference: patent US9090900B2, “Coryneform bacterium transformant and process for producing phenol using the same” (priority 2010, dated 2015)
Like-named read-outs stand apart in the source and are kept apart here.

Tests used:
[1] = tested on: Escherichia coli JM109; conditions: LB liquid medium, 37° C.
Protocol: (§1) A growth inhibition test in aerobic culture was performed to examine the influence of phenol on Corynebacterium glutamicum, Escherichia coli, and Pseudomonas putida. Pseudomonas putida S12, which was used for the test, is reported to be a solvent-resistant strain. In the report, disclosed is an unparalleled technology using the strain as a host in phenol production.
Escherichia coli JM109 was applied to LB agar medium (1% polypeptone, 0.5% yeast extract, 0.5% NaCl and 1.5% agar) and was left stand in the dark at 37° C. for 15 hours.
An inoculation loop of the Escherichia coli JM109 grown on a plate as above was inoculated into a test tube containing 10 mL of LB liquid medium (1% polypeptone, 0.5% yeast extract, and 0.5% NaCl), and aerobic culture was performed with shaking at 37° C. for 13 hours.
(§2) The Escherichia coli JM109 grown in the above conditions was inoculated into 100 mL of LB liquid medium in such a way that the initial bacterial cell concentration would be OD610=0.05, phenol was added at the same time in such a way that the final concentration would be 0, 0.16, or 0.20 mM, and aerobic culture was performed with shaking at 37° C. The growth of bacterial cells was determined by absorbance measurement at OD610.
(§3) The growth of bacterial cells was determined by absorbance measurement at OD610.

[2] = tested on: Pseudomonas putida F1; conditions: LB (+glucose) liquid medium, 30° C.
Protocol: as §1
(§4) Pseudomonas putida F1 and S12 were applied to LB agar medium (1% polypeptone, 0.5% yeast extract, 0.5% NaCl and 1.5% agar) and were left stand in the dark at 30° C. for 15 hours.
(§5) An inoculation loop of each of the Pseudomonas putida F1 and S12 grown on a plate as above was inoculated into a test tube containing 10 mL of LB (+glucose) liquid medium (1% polypeptone, 0.5% yeast extract, 0.5% NaCl and 0.4% glucose), and aerobic culture was performed with shaking at 30° C. for 13 hours.
(§6) The Pseudomonas putida F1 and S12 grown in the above conditions were each inoculated into 100 mL of LB (+glucose) liquid medium in such a way that the initial bacterial cell concentration would be OD610=0.05, phenol was added at the same time in such a way that the final concentration would be 0, 0.10, or 0.20 […], and aerobic culture was performed with shaking at 30° C.
as §3

[3] = tested on: Pseudomonas putida S12; conditions: LB (+glucose) liquid medium, 30° C.
Protocol: as §1, §4, §5, §6, §3

[4] = tested on: Corynebacterium glutamicum R; conditions: A liquid medium, 33° C.
Protocol: as §1
Corynebacterium glutamicum R was applied to A agar medium (2 g of (NH2)2CO3 7 g of (NH4)2SO4, 0.5 g of KH2PO4, 0.5 g of K2HPO4, 0.5 g of MgSO4.7H2O, 1 mL of 0.06% (w/v) Fe2SO4.7H2O+0.042% (w/v) MnSO4.2H2O, 1 mL of 0.02% (w/v) biotin solution, 2 mL of 0.01% (w/v) thiamin solution, 2 g of yeast extract, 7 g of vitamin assay casamino acid, 40 g of glucose, and 15 g of agar were suspended in 1 L of distilled water) and was left stand in the dark at 33° C. for 15 hours.
An inoculation loop of the Corynebacterium glutamicum R grown on a plate as above was inoculated into a test tube containing 10 mL of A liquid medium (2 g of (NH2)2CO3 7 g of (NH4)2SO4, 0.5 g of KH2PO4, 0.5 g of K2HPO4, 0.5 g of MgSO4.7H2O, 1 mL of 0.06% (w/v) Fe2SO4.7H2O+0.042% (w/v) MnSO4.2H2O, 1 mL of 0.02% (w/v) biotin solution, 2 mL of 0.01% (w/v) thiamin solution, 2 g of yeast extract, 7 g of vitamin assay casamino acid, and 40 g of glucose were suspended in 1 L of distilled water) and was aerobically cultured with shaking at 33° C. for 13 hours.
as §2, with “Corynebacterium glutamicum R” for “Escherichia coli JM109”, “A” for “LB”, “0.16, 0.2, 0.24,” for “0.16,”, “0.32” for “0.20”, “33°” for “37°”
as §3

Oc1ccccc1 [phenol]
influence of phenol on aerobic proliferation (OD610) ([1]; 0.16% phenol): significantly affected
influence of phenol on aerobic proliferation (OD610) ([1]; 0.20% phenol): completely inhibited
influence of phenol on aerobic proliferation (OD610) ([2]; 0.10% phenol): significantly affected
influence of phenol on aerobic proliferation (OD610) ([2]; 0.20% phenol): completely inhibited
influence of phenol on aerobic proliferation (OD610) ([3]; 0.10% phenol): significantly affected
influence of phenol on aerobic proliferation (OD610) ([3]; 0.20% phenol): completely inhibited
influence of phenol on aerobic proliferation (OD610) ([4]; 0.16% phenol): hardly affected
influence of phenol on aerobic proliferation (OD610) ([4]; 0.20% phenol): favorable growth
influence of phenol on aerobic proliferation (OD610) ([4]; 0.24% phenol): able to proliferate
